Values joined by “and” are separate entries in the source; they are usually repeats but may differ in a detail not shown here. Equal values may be shown once. Read-outs that look alike come from different tables or passages of the source.
Legend:
mammalian cells = details: read-out: Cytotoxicity IC50, ref Zhang et al., [30]; cited from earlier work
DiMT protein = format: biochemical, Dirofilaria immitis
D. immitis microfilariae = assay: In vitro efficacy against live D. immitis microfilariae (motility, completely immotile %); format: cell-based, Dirofilaria immitis; details: for Completely Immotile Microfilariae (%): single experiments

CO[C@@]12[C@H](COC(N)=O)C3=C(C(=O)C(C)=C(N)C3=O)N1C[C@H]1[C@@H]2N1C (stereo partly drawn) [NSC56410]
IC50 (mammalian cells): 188 µM
Mean Percent Inhibition (DiMT protein; 50 µM): 18.0% and 26.7% and 20.5%
Mean Percent Inhibition, Average (DiMT protein; 50 µM): 21.7%
Mean Percent Inhibition (DiMT protein; 100 µM): 26.6% and 33.3% and 21.3%
Mean Percent Inhibition, Average (DiMT protein; 100 µM): 27.1%
Mean Percent Inhibition (DiMT protein; 150 µM): 31.0% and 35.0% and 25.0%
Mean Percent Inhibition, Average (DiMT protein; 150 µM): 30.3%
Mean Percent Inhibition (DiMT protein; 200 µM): 34.6% and 41.9% and 31.9%
Mean Percent Inhibition, Average (DiMT protein; 200 µM): 36.1%
Mean Percent Inhibition (DiMT protein; 250 µM): 41.2% and 38.8% and 51.8%
Mean Percent Inhibition, Average (DiMT protein; 250 µM): 43.9%
Mean Percent Inhibition (DiMT protein; 300 µM): 48.3% and 48.6% and 46.0%
Mean Percent Inhibition, Average (DiMT protein; 300 µM): 47.6%
Mean Percent Inhibition (DiMT protein; 350 µM): 53.8% and 59.3% and 53.7%
Mean Percent Inhibition, Average (DiMT protein; 350 µM): 55.6%
Mean Percent Inhibition (DiMT protein; 400 µM): 62.5% and 63.8%
Mean Percent Inhibition, Average (DiMT protein; 400 µM): 62.9%
IC50 (DiMT protein; read-out: IC 50 (μM ± SEM)): 300 ± 2.5 µM
Mean completely Immotile (%) (D. immitis microfilariae; 25 µM, 0 h): 0%
Mean completely Immotile (%) (D. immitis microfilariae; 25 µM, 24 h): 2.33%
Mean completely Immotile (%) (D. immitis microfilariae; 25 µM, 48 h): 7.67%
Mean completely Immotile (%) (D. immitis microfilariae; 25 µM, 72 h): 12.5%
Mean completely Immotile (%) (D. immitis microfilariae; 25 µM, 96 h): 30.5%
Mean completely Immotile (%) (D. immitis microfilariae; 25 µM, 120 h): 45%
Mean completely Immotile (%) (D. immitis microfilariae; 50 µM, 0 h): 0%
Mean completely Immotile (%) (D. immitis microfilariae; 50 µM, 24 h): 13%
Mean completely Immotile (%) (D. immitis microfilariae; 50 µM, 48 h): 21.33%
Mean completely Immotile (%) (D. immitis microfilariae; 50 µM, 72 h): 54.33%
Mean completely Immotile (%) (D. immitis microfilariae; 50 µM, 96 h): 79.33%
Mean completely Immotile (%) (D. immitis microfilariae; 50 µM, 120 h): 97.67%
Mean completely Immotile (%) (D. immitis microfilariae; 75 µM, 0 h): 0%
Mean completely Immotile (%) (D. immitis microfilariae; 75 µM, 24 h): 38.67%
Mean completely Immotile (%) (D. immitis microfilariae; 75 µM, 48 h): 59.33%
Mean completely Immotile (%) (D. immitis microfilariae; 75 µM, 72 h): 86%
Mean completely Immotile (%) (D. immitis microfilariae; 75 µM, 96 h): 98.33%
Mean completely Immotile (%) (D. immitis microfilariae; 75 µM, 120 h): 100%
Mean completely Immotile (%) (D. immitis microfilariae; 100 µM, 0 h): 0%
Mean completely Immotile (%) (D. immitis microfilariae; 100 µM, 24 h): 61%
Mean completely Immotile (%) (D. immitis microfilariae; 100 µM, 48 h): 77.67%
Mean completely Immotile (%) (D. immitis microfilariae; 100 µM, 72 h): 98%
Mean completely Immotile (%) (D. immitis microfilariae; 100 µM, 96 h): 100%
Mean completely Immotile (%) (D. immitis microfilariae; 100 µM, 120 h): 100%
EC50 (D. immitis microfilariae; Dirofilaria immitis, 96 h, read-out: Anti-parasitic EC50 (μM), 96 h post-treatment): 32.1 µM
EC50 (D. immitis microfilariae; read-out: Anti-parasitic EC50, 96 h post-treatment): 32.2 µM
Completely Immotile Microfilariae (%) (D. immitis microfilariae; 25 µM, 0 h): 0%
Completely Immotile Microfilariae (%) (D. immitis microfilariae; 25 µM, 24 h): 2% and 4% and 1%
Completely Immotile Microfilariae (%) (D. immitis microfilariae; 25 µM, 48 h): 8% and 10% and 5%
Completely Immotile Microfilariae (%) (D. immitis microfilariae; 25 µM, 72 h): 15% and 12.5% and 10%
Completely Immotile Microfilariae (%) (D. immitis microfilariae; 25 µM, 96 h): 35% and 29.5% and 27%
Completely Immotile Microfilariae (%) (D. immitis microfilariae; 25 µM, 120 h): 50% and 44% and 41%
Completely Immotile Microfilariae (%) (D. immitis microfilariae; 50 µM, 0 h): 0%
Completely Immotile Microfilariae (%) (D. immitis microfilariae; 50 µM, 24 h): 15% and 11.5% and 12.5%
Completely Immotile Microfilariae (%) (D. immitis microfilariae; 50 µM, 48 h): 23% and 21% and 20%
Completely Immotile Microfilariae (%) (D. immitis microfilariae; 50 µM, 72 h): 56% and 50% and 57%
Completely Immotile Microfilariae (%) (D. immitis microfilariae; 50 µM, 96 h): 80% and 76% and 82%
Completely Immotile Microfilariae (%) (D. immitis microfilariae; 50 µM, 120 h): 100% and 95% and 98%
Completely Immotile Microfilariae (%) (D. immitis microfilariae; 75 µM, 0 h): 0%
Completely Immotile Microfilariae (%) (D. immitis microfilariae; 75 µM, 24 h): 36% and 40%
Completely Immotile Microfilariae (%) (D. immitis microfilariae; 75 µM, 48 h): 55% and 60% and 63%
Completely Immotile Microfilariae (%) (D. immitis microfilariae; 75 µM, 72 h): 83% and 88% and 87%
Completely Immotile Microfilariae (%) (D. immitis microfilariae; 75 µM, 96 h): 100% and 95%
Completely Immotile Microfilariae (%) (D. immitis microfilariae; 75 µM, 120 h): 100%
Completely Immotile Microfilariae (%) (D. immitis microfilariae; 100 µM, 0 h): 0%
Completely Immotile Microfilariae (%) (D. immitis microfilariae; 100 µM, 24 h): 60% and 58% and 65%
Completely Immotile Microfilariae (%) (D. immitis microfilariae; 100 µM, 48 h): 75% and 78% and 80%
Completely Immotile Microfilariae (%) (D. immitis microfilariae; 100 µM, 72 h): 95% and 100% and 99%
Completely Immotile Microfilariae (%) (D. immitis microfilariae; 100 µM, 96 h): 100%
Completely Immotile Microfilariae (%) (D. immitis microfilariae; 100 µM, 120 h): 100%
effect on microfilariae (D. immitis microfilariae; up to 120 h of culture): killing effect

From PMC11392244, “Characterization of a unique catechol-O-methyltransferase as a molecular drug target in parasitic filarial nematodes” (PLOS Neglected Tropical Diseases, 2024)
